Data reported in PMC9571063 (Molecules, 2022).
Where “and” joins values, the source holds several entries; their conditions need not be identical. Identical values can stand only once. Counter-ions that a name gives are not always drawn. Like-named read-outs stand apart in the source and are kept apart here.

Tests used:
HsCLK1 = biological target: T1, HsCLK1 (Homo sapiens, UniProt P49759); test: ADP-Glo kinase assay; assay type: biochemical
T1 construct: host or cells: Sf9 insect cells (baculovirus)
T1 sequence (P49759 whole entry): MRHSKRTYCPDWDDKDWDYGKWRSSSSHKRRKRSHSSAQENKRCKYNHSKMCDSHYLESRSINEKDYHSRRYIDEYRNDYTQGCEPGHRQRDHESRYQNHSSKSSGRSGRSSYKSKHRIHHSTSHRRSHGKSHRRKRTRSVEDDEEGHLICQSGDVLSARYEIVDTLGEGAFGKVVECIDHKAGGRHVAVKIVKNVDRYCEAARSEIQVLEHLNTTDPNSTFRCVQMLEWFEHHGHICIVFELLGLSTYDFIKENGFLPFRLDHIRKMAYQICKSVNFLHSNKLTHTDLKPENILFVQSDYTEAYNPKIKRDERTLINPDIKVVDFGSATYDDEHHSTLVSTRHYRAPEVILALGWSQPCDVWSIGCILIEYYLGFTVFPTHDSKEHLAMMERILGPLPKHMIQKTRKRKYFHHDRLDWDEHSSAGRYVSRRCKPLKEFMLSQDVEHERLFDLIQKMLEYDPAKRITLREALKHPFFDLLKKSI

HsDYRK1A = biological target: T2, HsDYRK1A (Homo sapiens, UniProt Q13627); test: ADP-Glo kinase assay; assay type: biochemical; conditions: for remaining activity at 1 µM / remaining activity at 10 µM: n=2, read-out: % of residual activity Hs_DYRK1A; for IC50: 10 µM ATP, duplicate
T2 construct: host or cells: Sf9 insect cells (baculovirus)

MmCLK1 = biological target: T3, MmCLK1 (Mus musculus, UniProt P22518); test: ADP-Glo kinase assay; assay type: biochemical; conditions: for remaining activity at 1 µM / remaining activity at 10 µM: n=2, read-out: % of residual activity Mm_CLK1
T3 construct: host or cells: bacteria
T3 sequence (P22518 whole entry): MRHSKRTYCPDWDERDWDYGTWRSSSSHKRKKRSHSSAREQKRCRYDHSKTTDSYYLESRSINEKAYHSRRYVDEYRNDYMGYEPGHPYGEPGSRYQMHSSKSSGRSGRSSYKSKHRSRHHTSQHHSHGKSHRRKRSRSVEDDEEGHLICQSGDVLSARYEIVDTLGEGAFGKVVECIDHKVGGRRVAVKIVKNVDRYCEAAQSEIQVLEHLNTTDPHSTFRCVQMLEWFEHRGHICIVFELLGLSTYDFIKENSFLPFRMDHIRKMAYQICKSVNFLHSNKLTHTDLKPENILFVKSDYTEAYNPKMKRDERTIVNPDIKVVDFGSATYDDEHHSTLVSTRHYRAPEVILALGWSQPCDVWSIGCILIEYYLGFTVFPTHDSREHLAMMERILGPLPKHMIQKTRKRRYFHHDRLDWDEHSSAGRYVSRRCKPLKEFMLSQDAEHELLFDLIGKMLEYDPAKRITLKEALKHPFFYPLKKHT

Hs_CDK5/p25 = biological target: T4, Hs_CDK5/p25 (Homo sapiens, UniProt Q00535); test: ADP-Glo kinase assay, primary screen; assay type: biochemical; conditions: n=2, read-out: % of residual activity Hs_CDK5/p25
T4 construct: host or cells: bacteria
T4 sequence (Q00535 whole entry): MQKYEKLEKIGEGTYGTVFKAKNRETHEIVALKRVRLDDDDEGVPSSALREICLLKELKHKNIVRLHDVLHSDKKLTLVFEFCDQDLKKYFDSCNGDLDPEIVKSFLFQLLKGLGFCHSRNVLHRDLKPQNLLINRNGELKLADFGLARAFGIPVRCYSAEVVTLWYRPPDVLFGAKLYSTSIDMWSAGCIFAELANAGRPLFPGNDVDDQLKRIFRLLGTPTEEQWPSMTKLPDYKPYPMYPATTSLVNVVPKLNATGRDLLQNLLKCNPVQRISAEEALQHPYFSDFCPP
T4 sequence (Q15078 99-307 partner limits assumed): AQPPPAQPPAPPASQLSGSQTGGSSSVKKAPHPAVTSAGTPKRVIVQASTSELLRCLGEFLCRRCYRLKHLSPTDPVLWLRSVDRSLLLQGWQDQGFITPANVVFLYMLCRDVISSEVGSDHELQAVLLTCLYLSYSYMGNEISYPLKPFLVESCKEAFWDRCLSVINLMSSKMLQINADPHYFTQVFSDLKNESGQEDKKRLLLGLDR

Hs_CDK9/CyclinT = biological target: T5, Hs_CDK9/CyclinT (Homo sapiens, UniProt P50750); test: ADP-Glo kinase assay, primary screen; assay type: biochemical; conditions: n=2, read-out: % of residual activity Hs_CDK9/CyclinT
T5 construct: host or cells: Sf9 insect cells (baculovirus)
T5 sequence (P50750 whole entry): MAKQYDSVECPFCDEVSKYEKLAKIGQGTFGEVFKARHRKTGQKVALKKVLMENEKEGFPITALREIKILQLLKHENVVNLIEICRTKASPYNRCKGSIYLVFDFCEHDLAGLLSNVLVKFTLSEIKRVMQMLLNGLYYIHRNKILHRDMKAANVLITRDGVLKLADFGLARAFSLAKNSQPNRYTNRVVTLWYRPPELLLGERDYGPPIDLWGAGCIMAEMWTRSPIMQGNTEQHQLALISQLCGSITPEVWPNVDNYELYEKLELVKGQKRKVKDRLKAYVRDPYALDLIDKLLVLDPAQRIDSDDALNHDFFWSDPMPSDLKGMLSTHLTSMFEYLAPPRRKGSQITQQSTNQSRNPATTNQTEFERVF
T5 sequence (O60563 whole entry partner): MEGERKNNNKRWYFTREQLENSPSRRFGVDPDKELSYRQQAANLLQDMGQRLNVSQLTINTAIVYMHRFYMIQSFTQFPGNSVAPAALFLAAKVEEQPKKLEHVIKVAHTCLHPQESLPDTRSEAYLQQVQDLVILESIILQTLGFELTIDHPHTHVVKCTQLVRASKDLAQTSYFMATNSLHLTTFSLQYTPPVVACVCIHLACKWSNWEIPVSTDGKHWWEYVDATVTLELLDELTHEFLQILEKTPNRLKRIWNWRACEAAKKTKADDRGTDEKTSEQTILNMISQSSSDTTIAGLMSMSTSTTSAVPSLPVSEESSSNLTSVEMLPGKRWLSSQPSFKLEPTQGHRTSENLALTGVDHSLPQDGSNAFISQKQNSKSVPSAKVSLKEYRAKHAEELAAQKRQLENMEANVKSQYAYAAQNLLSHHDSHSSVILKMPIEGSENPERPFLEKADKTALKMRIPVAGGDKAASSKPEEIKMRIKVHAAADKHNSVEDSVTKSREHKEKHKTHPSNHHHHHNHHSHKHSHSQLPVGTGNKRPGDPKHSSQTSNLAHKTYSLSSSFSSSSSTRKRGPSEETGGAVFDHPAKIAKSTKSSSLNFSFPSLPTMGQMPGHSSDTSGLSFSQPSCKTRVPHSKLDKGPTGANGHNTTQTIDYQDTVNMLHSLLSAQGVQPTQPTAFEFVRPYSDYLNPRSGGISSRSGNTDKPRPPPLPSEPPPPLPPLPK

Hs_PIM1 = biological target: T6, Hs_PIM1 (Homo sapiens, UniProt P11309); test: ADP-Glo kinase assay, primary screen; assay type: biochemical; conditions: n=2, read-out: % of residual activity Hs_PIM1
T6 construct: host or cells: Sf9 insect cells (baculovirus)
T6 sequence (P11309 whole entry): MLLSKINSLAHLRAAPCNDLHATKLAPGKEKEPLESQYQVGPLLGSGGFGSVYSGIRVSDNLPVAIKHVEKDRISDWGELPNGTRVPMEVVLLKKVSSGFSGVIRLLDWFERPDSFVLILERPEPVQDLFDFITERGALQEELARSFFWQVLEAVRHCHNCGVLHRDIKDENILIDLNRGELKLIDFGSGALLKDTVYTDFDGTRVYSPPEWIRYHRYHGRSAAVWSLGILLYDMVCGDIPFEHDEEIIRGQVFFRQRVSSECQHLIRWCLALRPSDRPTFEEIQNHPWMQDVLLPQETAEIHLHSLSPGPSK

Rn_DYRK1A = biological target: T7, Rn_DYRK1A (Rattus norvegicus, UniProt Q63470); test: ADP-Glo kinase assay, primary screen; assay type: biochemical; conditions: n=2, read-out: % of residual activity Rn_DYRK1A
T7 construct: host or cells: bacteria

Hs_HASPIN = biological target: T8, Hs_HASPIN (Homo sapiens, UniProt Q8TF76); test: ADP-Glo kinase assay, primary screen; assay type: biochemical; conditions: n=2, read-out: % of residual activity Hs_HASPIN
T8 construct: host or cells: bacteria
T8 sequence (Q8TF76 1-798): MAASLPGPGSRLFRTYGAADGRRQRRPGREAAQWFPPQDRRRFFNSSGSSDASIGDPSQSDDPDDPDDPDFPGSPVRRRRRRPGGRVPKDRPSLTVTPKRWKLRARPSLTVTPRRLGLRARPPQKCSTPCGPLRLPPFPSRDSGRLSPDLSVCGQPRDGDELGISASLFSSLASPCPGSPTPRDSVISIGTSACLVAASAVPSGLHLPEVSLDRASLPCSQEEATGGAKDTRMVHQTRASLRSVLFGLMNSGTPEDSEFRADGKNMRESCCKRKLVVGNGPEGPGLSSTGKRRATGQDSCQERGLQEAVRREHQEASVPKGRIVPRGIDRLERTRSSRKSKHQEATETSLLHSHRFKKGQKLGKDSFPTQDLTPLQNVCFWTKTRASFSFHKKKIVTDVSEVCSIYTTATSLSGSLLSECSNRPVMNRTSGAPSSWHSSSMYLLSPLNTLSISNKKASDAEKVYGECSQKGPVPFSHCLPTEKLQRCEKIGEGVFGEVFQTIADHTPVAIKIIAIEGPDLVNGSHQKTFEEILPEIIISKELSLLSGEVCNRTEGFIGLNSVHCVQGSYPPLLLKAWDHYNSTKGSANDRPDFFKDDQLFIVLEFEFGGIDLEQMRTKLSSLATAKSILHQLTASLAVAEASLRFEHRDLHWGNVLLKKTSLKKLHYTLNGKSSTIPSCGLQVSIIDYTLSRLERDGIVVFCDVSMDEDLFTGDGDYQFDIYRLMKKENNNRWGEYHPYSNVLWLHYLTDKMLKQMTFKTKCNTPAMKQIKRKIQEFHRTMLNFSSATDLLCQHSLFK

Hs_GSK3β = biological target: T9, Hs_GSK3β (Homo sapiens, UniProt P49841); test: ADP-Glo kinase assay, primary screen; assay type: biochemical; conditions: n=2, read-out: % of residual activity Hs_GSK3β
T9 construct: host or cells: Sf9 insect cells (baculovirus)
T9 sequence (P49841 whole entry): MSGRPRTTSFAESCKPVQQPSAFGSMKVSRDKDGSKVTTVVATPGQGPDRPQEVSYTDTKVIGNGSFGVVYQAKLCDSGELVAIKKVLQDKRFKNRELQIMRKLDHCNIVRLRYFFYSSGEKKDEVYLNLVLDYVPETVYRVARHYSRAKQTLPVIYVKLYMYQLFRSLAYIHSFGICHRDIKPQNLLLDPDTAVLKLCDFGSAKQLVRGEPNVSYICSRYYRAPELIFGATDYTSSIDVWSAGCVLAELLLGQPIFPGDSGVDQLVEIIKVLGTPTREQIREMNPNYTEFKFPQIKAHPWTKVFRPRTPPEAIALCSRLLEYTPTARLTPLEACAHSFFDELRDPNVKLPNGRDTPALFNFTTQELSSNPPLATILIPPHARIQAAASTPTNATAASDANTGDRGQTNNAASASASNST

Hs_CK1ε = biological target: T10, Hs_CK1ε (Homo sapiens, UniProt P49674); test: ADP-Glo kinase assay, primary screen; assay type: biochemical; conditions: n=2, read-out: % of residual activity Hs_CK1ε
T10 construct: host or cells: Sf9 insect cells (baculovirus)
T10 sequence (P49674 whole entry): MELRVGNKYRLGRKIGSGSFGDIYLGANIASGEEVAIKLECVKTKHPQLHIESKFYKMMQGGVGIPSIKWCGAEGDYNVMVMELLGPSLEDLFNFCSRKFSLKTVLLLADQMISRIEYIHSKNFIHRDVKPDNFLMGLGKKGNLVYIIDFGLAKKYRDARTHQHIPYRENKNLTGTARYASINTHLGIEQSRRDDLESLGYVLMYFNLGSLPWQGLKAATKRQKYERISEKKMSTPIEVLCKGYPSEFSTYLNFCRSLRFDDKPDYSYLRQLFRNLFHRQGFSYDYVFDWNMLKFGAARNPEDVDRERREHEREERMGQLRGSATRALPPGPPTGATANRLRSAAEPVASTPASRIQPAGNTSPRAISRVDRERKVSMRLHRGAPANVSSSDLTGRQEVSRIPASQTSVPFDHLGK

[1] = cytotoxic assay, nuclei count (Hoechst, HCS); assay type: cell-based; conditions: human, HuH7 cells (hepatocellular carcinoma); 48 h treatment; read-out: Cytotoxic studies IC50 HuH7
[2] = cytotoxic assay, nuclei count (Hoechst, HCS); assay type: cell-based; conditions: human, Caco-2 cells (colorectal adenocarcinoma); 48 h treatment; read-out: Cytotoxic studies IC50 Caco2
[3] = cytotoxic assay, nuclei count (Hoechst, HCS); assay type: cell-based; conditions: human, MCF7 cells (breast carcinoma); 48 h treatment; read-out: Cytotoxic studies IC50 MCF7
[4] = cytotoxic assay, nuclei count (Hoechst, HCS); assay type: cell-based, human; conditions: human, human skin fibroblasts (non-cancerous reference cells); 48 h treatment; some cells add low/moderate/high amplitude; read-out: Cytotoxic studies IC50 Fibroblasts
[5] = 10 µM ATP, duplicate, read-out: IC50 HsCLK1
[6] = mouse CLK1 orthologue, read-out: IC50 MmCLK1

| SMILES | IC50 (HsCLK1; [5]) | remaining activity at 1 µM (HsDYRK1A) [%] | remaining activity at 10 µM (HsDYRK1A) [%] | remaining activity at 1 µM (MmCLK1) [%] | remaining activity at 10 µM (MmCLK1) [%] | IC50 (MmCLK1; [6]) [µM] | remaining activity at 1 µM (Hs_CDK5/p25) [%] | remaining activity at 10 µM (Hs_CDK5/p25) [%] | remaining activity at 1 µM (Hs_CDK9/CyclinT) [%] | remaining activity at 10 µM (Hs_CDK9/CyclinT) [%] | remaining activity at 1 µM (Hs_PIM1) [%] | remaining activity at 10 µM (Hs_PIM1) [%] | remaining activity at 1 µM (Rn_DYRK1A) [%] | remaining activity at 10 µM (Rn_DYRK1A) [%] | remaining activity at 1 µM (Hs_HASPIN) [%] | remaining activity at 10 µM (Hs_HASPIN) [%] | remaining activity at 1 µM (Hs_GSK3β) [%] | remaining activity at 10 µM (Hs_GSK3β) [%] | remaining activity at 1 µM (Hs_CK1ε) [%] | remaining activity at 10 µM (Hs_CK1ε) [%] | also measured |
| --- | --- | --- | --- | --- | --- | --- | --- | --- | --- | --- | --- | --- | --- | --- | --- | --- | --- | --- | --- | --- | --- |
| Cc1ccc(-n2cc(COc3cccc4cnc(Nc5cc(Cl)cc(Cl)c5)nc34)nn2)c([N+](=O)[O-])c1 [7b, N-(3,5-dichlorophenyl)-8-((1-(4-methyl-2-nitrophenyl)-1H-1,2,3-triazol-4-yl)methoxy)quinazolin-2-amine] | 0.085 µM | ≥ 100 | 80 | 14 | 17 | 0.28 to 0.369 | 93 | 68 | 80 | 34 | 87 | 84 | 87 | 95 | 81 | 46 | 85 | 36 | 81 | 47 | activity on the human DYRK1A (HsDYRK1A): completely inactive; IC50 (HsDYRK1A): > 100 µM; IC50 at 48 h [1]: > 25 µM; IC50 at 48 h [2]: > 25 µM; IC50 at 48 h [3]: 24 µM; IC50 at 48 h [4]: > 25 µM |
| O=[N+]([O-])c1cc(Br)ccc1-n1cc(COc2cccc3cnc(Nc4cccc(Cl)c4)nc23)nn1 [12d, N-(3-Chlorophenyl)-8-((1-(4-bromo-2-nitrophenyl)-1H-1,2,3-triazol-4-yl)methoxy)quinazolin-2-amine] | 0.2 to 0.3 µM and 0.378 µM | ≥ 100 | 77 | 27 | 22 | 0.391 | ≥ 100 | ≥ 100 | 85 | 43 | 85 | 70 | ≥ 100 | 76 | 91 | 95 | ≥ 100 | 75 | ≥ 100 | 90 | IC50 at 48 h [1]: 2 µM; IC50 at 48 h [2]: > 25 µM; IC50 at 48 h [3]: > 25 µM; IC50 at 48 h [4]: 13 µM |
| O=[N+]([O-])c1cc(CO)ccc1-n1cc(COc2cccc3cnc(Nc4cccc(Cl)c4)nc23)nn1 [12e, 4-(4-(((2-((3-Chlorophenyl)amino)quinazolin-8-yl)oxy)methyl)-1H-1,2,3-triazol-1-yl)-3-nitrobenzyl alcohol] | 0.146 µM | 84 | 31 | 74 | 35 | 0.191 | ≥ 100 | 54 | 74 | 21 | 96 | 69 | 80 | 34 | 92 | 88 | 99 | 35 | ≥ 100 | 52 | IC50 (HsCLK1; read-out: IC50 human CLK1): 0.15 to 0.2 µM; IC50 (HsDYRK1A): 2.3 µM and 2.33 µM; IC50 at 48 h [1]: 3 µM; IC50 at 48 h [2]: 7 µM; IC50 at 48 h [3]: 4 µM; IC50 at 48 h [4]: 6 µM |
| COC(=O)c1ccc(-n2cc(COc3cccc4cnc(Nc5cccc(Cl)c5)nc34)nn2)c([N+](=O)[O-])c1 [12f, Methyl 4-(4-(((2-((3-chlorophenyl)amino)quinazolin-8-yl)oxy)methyl)-1H-1,2,3-triazol-1-yl)-3-nitrobenzoate] | 0.293 µM | ≥ 100 | 93 | 28 | 18 | 0.245 | ≥ 100 | 61 | 73 | 45 | 73 | 66 | ≥ 100 | 83 | 73 | 76 | 99 | 69 | ≥ 100 | 95 | IC50 at 48 h [1]: > 25 µM; IC50 at 48 h [2]: > 25 µM; IC50 at 48 h [3]: > 25 µM; IC50 at 48 h [4]: > 25 µM |
| O=C(O)c1ccc(-n2cc(COc3cccc4cnc(Nc5cccc(Cl)c5)nc34)nn2)c([N+](=O)[O-])c1 [12g, 4-(4-(((2-((3-Chlorophenyl)amino)quinazolin-8-yl)oxy)methyl)-1H-1,2,3-triazol-1-yl)-3-nitrobenzoic acid] | 0.004 µM | 86 | 50 | 13 | 5 | 0.024 | 45 | 97 | 38 | 21 | 66 | 31 | 61 | 39 | 75 | 69 | 76 | 19 | 98 | 72 | IC50 (HsDYRK1A): 3.94 µM; IC50 at 48 h [1]: > 25 µM; IC50 at 48 h [2]: > 25 µM; IC50 at 48 h [3]: > 25 µM; IC50 at 48 h [4]: > 25 µM |
| N[C@H]1CC[C@@H](n2cc(COc3cccc4cnc(Nc5cc(Cl)cc(Cl)c5)nc34)nn2)CC1 [16b, 8-((1-((cis)-4-Aminocyclohexyl)-1H-1,2,3-triazol-4-yl)methoxy)-N-(3,5-dichlorophenyl)quinazolin-2-amine hydrochloride] | 0.053 µM | 85 | 38 | 19 | 8 | 0.18 | 87 | 44 | 61 | 18 | 69 | 15 | 71 | 20 | 76 | 76 | 47 | 8 | 82 | 24 | IC50 (HsDYRK1A): 1.9 µM; IC50 at 48 h [1]: 2 µM; IC50 at 48 h [2]: 3 µM; IC50 at 48 h [3]: 3 µM; IC50 at 48 h [4]: 2 µM |
| Cc1ccc(-n2cc(COc3cccc4cnc(Nc5cccc(Cl)c5)nc34)nn2)c([N+](=O)[O-])c1 [DB18] |  |  |  |  |  |  |  |  |  |  |  |  |  |  |  |  |  |  |  |  | IC50 (MmCLK1): 0.12 µM |
